From patent publication US20210400977A1, “META-DIAMIDE COMPOUNDS FOR CONTROLLING INVERTEBRATE PESTS” (FMC Corporation, priority 2018, published 2021) come the findings set out here.

Data set [1] has as its system sweetpotato whitefly (Bemisia tabaci (Gennadius)). In words: Test G: control of sweetpotato whitefly through contact and/or systemic means. To be noted: 312 h, assessed after 13 days; for mortality at 50 ppm: sprayed at 50 ppm; for mortality at 250 ppm: sprayed at 250 ppm. Format: in vivo. As to the method:
(§1) Test compounds were formulated using a solution containing 10% acetone, 90% water and 300 ppm Activator 90® non-ionic surfactant (Loveland Products, Loveland, Colo., USA). The formulated compounds were applied in 1 mL of liquid through an atomizer nozzle positioned 1.27 cm (0.5 inches) above the top of each test unit. Test compounds were sprayed at the rates indicated, and each test was replicated three times.
For evaluating control of the sweetpotato whitefly (Bemisia tabaci (Gennadius)) through contact and/or systemic means, the test unit consisted of a small open container with a 12-14-day-old cotton plant or 7-9-day-old soybean plant inside. Prior to the spray application, both cotyledons were removed from the plant, leaving one true leaf for the assay. Adult whiteflies were allowed to lay eggs on the plant and then were removed from the test unit. Cotton or soybean plants infested with at least 15 eggs were submitted to the test for spraying.
Test compounds were formulated and sprayed at 250 and/or 50 ppm. After spraying, the test units were allowed to dry for 1 hour. The cylinders were then removed, and the units were taken to a growth chamber and held for 13 days at 28° C. and 50-70% relative humidity. Each test unit was then visually assessed for insect mortality.

For data set [2], the system named is corn planthopper (Peregrinus maidis (Ashmead)). Nature of the data set: Test C: control of corn planthopper through contact and/or systemic means. To be noted: 144 h, sprayed at 250 ppm, assessed after 6 days. In kind it is in vivo. The protocol:
as §1
For evaluating control of corn planthopper (Peregrinus maidis (Ashmead)) through contact and/or systemic means, the test unit consisted of a small open container with a 3-4-day-old corn (maize) plant inside. White sand was added to the top of the soil prior to application of the test compound.
Test compounds were formulated and sprayed at 250 and/or 50 ppm. After spraying of the formulated test compound, the test units were allowed to dry for 1 h before they were post-infested with ˜15-20 nymphs (18-to-21-day-old). A black, screened cap was placed on the top of each test unit, and the test units were held for 6 days in a growth chamber at 22-24° C. and 50-70% relative humidity. Each test unit was then visually assessed for insect mortality.

For data set [3], the system named is potato leafhopper (Empoasca fabae (Harris)). In words: Test D: control of potato leafhopper through contact and/or systemic means. To be noted: 144 h, assessed after 6 days; for mortality at 50 ppm: sprayed at 50 ppm. Format: in vivo. As to the method: as §1
For evaluating control of potato leafhopper (Empoasca fabae (Harris)) through contact and/or systemic means, the test unit consisted of a small open container with a 5-6-day-old Soleil bean plant (primary leaves emerged) inside. White sand was added to the top of the soil, and one of the primary leaves was excised prior to application of the test compound.
Test compounds were formulated and sprayed at 250 and/or 50 ppm. After spraying of the formulated test compound, the test units were allowed to dry for 1 hour before they were post-infested with 5 potato leafhoppers (18-to-21-day-old adults). A black, screened cap was placed on the top of the test unit, and the test units were held for 6 days in a growth chamber at 20° C. and 70% relative humidity. Each test unit was then visually assessed for insect mortality.

In data set [4] the test system is cotton melon aphid (Aphis gossypii (Glover)). In words: Test F: control of cotton melon aphid through contact and/or systemic means. In kind it is in vivo. The conditions noted are these: 144 h, assessed after 6 days; for mortality at 50 ppm: sprayed at 50 ppm.
For data set [5], the system named is green peach aphid (Myzus persicae (Sulzer)). Nature of the data set: Test E: control of green peach aphid through contact and/or systemic means. To be noted: 144 h, assessed after 6 days; for mortality at 50 ppm: sprayed at 50 ppm. Format: in vivo. The protocol:
as §1
For evaluating control of green peach aphid (Myzus persicae (Sulzer)) through contact and/or systemic means, the test unit consisted of a small open container with a 12-15-day-old radish plant inside. This was pre-infested by placing on a leaf of the test plant 30-40 aphids on a piece of leaf excised from a culture plant (cut-leaf method). The aphids moved onto the test plant as the leaf piece desiccated. After pre-infestation, the soil of the test unit was covered with a layer of sand.
Test compounds were formulated and sprayed at 250 and/or 50 ppm. After spraying of the formulated test compound, each test unit was allowed to dry for 1 hour and then a black, screened cap was placed on top. The test units were held for 6 days in a growth chamber at 19-21° C. and 50-70% relative humidity. Each test unit was then visually assessed for insect mortality.

In data set [1], `CCC(=O)NCc1cc(NC(=O)C2C(c3cc(Cl)cc(Cl)c3)C2(Cl)Cl)ccc1F` (stereo not drawn) [Compound 153] returned a mortality at 50 ppm of at least 70%. Moreover, the mortality at 250 ppm in data set [1] was at least 70%; in data set [2], at least 80%.

On to `CC(=O)NCc1nc(NC(=O)C2C(c3ccc(F)c(Cl)c3)C2(Cl)Cl)ccc1Br` (stereo not drawn) [Compound 247], for which the melting point lay within 170 to 173 °C.

`CC(=O)NCc1ccc(Cl)c(NC(=O)C2C(c3cc(Cl)cc(Cl)c3)C2(Cl)Cl)c1` (stereo not drawn) [Compound 135] yielded a melting point of 101 to 105 °C.

As for `O=C(NCc1nc(NC(=O)C2C(c3ccc(F)c(Cl)c3)C2(Cl)Cl)ccc1Br)C1CC1` (stereo not drawn) [Compound 254], the melting point fell in the range of 152 to 155 °C.

Turning to `CC(C)C(=O)NCc1ccc(Cl)c(NC(=O)C2C(c3cc(Cl)cc(Cl)c3)C2(Cl)Cl)c1` (stereo not drawn) [Compound 136], the melting point lay within 187 to 191 °C.

The compound `CN(Cc1cc(NC(=O)C2C(c3cc(Cl)cc(Cl)c3)C2(F)F)ccc1Cl)C(=O)C1CC1` (stereo not drawn) [Compound 32] yielded a melting point of 151 to 155 °C.

In the case of `CCC(=O)NCc1cc(NC(=O)C2C(c3cc(Cl)cc(Cl)c3)C2(Cl)Cl)ccc1Cl` (stereo not drawn) [Compound 147], the mortality at 50 ppm is at least 70% in data set [1], at least 80% in data set [3], at least 80% in data set [4] and at least 80% in data set [5]. Also, the mortality at 250 ppm in data set [1] was at least 70%; in data set [3] (sprayed at 250 ppm), at least 80%; in data set [4] (sprayed at 250 ppm) it was at least 80%; in data set [5] (sprayed at 250 ppm), at least 80%.

Consider `O=C(CC(F)(F)F)NCc1nc(NC(=O)C2C(c3ccc(F)c(Cl)c3)C2(Cl)Cl)ccc1Br` (stereo not drawn) [Compound 256], for which the melting point was in the range of 184 to 187 °C.

In turn, `O=C(Nc1ccc(Cl)c(CNC(=O)C(F)(F)F)c1)C1C(c2ccc(F)c(C(F)(F)F)c2)C1(Cl)Cl` (stereo not drawn) [Compound 174, 2,2-dichloro-N-[4-chloro-3-[[(2,2,2-trifluoroacetyl)amino]methyl]phenyl]-3-[4-fluoro-3-(trifluoromethyl)phenyl]cyclopropanecarboxamide] came in with a mortality at 250 ppm in data set [1] of at least 70%. Moreover, the mortality at 50 ppm in data set [3], in data set [4] and in data set [5] was at least 80% throughout.

As a reminder, the mortality is the percentage killed. A high value points to a strong lethal effect. Broadly, the melting point is the temperature of the solid-liquid transition.
